This is an account of results in patent publication US12233041B2, “Disulfonate stilbenes for use in the treatment of proliferative diseases” (UNIVERSITÉ DE NANTES, priority 2018, dated 2025).

Assay [1] deals with recombinant fibroblast line RG37. The assay can be described thus: Intracellular homologous recombination (HR), GFP reconstitution after I-SceI cleavage, flow cytometry. It counts as cell-based. The conditions noted are these: RG37 cells, 72 h after pCMV-HA-I-SceI transfection; FIG. 3. On the procedure:
After transfection with the pCMV-HA-I-SceI plasmid and incubation for 72 h, the cells were collected in PBS and 50 mM EDTA, pelleted and fixed with 2% paraformaledhyde for 20 min. The percentage of GFP-expressing cells was scored by FACS analysis using Cytoflex (Beckman Coulter). At least 3 independent experiments were performed, and HA-I-SceI expression was verified each time by Western blot with rabbit anti-HA antibody (Abcam).
The recombinant fibroblast line RG37 is used to confirm in vitro results (Examples 2-5) in the cellular context. This cellar line comprises two non-functional GFP cassettes, one of which has a unique cleavage site inducible by transfection of a restriction enzyme. After cleavage, which is equivalent to a double-strand break (DSB) of the DNA, the homologous recombination (HR) leads to the reconstitution of a complete GFP cassette thus making the cell fluorescent. The rate of intracellular HR is then determined by measurement in flow cytometry so as to measure the level of HR in cells after treatment with compounds C-3, B-2 and X-2.
(In general: A flow cytometer gives signals particle by particle.)

A further assay addresses T1, Rad51 (Homo sapiens, UniProt Q06609).
T1 sequence (Q06609 1-339): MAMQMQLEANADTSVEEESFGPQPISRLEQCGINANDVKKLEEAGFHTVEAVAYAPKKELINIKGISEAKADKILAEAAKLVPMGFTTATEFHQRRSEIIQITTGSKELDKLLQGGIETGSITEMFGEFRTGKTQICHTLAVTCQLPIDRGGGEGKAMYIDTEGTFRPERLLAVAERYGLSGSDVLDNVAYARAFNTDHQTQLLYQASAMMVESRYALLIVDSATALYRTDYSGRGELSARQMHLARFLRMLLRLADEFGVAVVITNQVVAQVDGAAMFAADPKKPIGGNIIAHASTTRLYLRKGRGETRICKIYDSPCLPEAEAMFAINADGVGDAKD
Briefly: DNA invasion by D-loop assay (strand exchange). It counts as biochemical. The conditions noted are these: 0.5 μM Rad51, 1 μM 100-ssDNA, 37° C.; read-out: IC50 (RAD51 protein inhibition, D-loop formation). On the procedure: Labeled 100-ssDNA** (1 μM) was incubated with 0.5 μM Rad51 in presence or absence of the indicated amounts of the corresponding molecule in 10 μL of standard reaction buffer containing 20 mM Tris-HCl (pH 8), 1 mM ATP, 1 mM DTT, 1 mM CaCl2) at 37° C. for 20 min. The reaction was initiated by adding supercoiled pPB4.3 DNA (200 μM in bp). After incubation of 30 min at 37° C., the reactions were stopped and deproteinized by a stop solution (10 mM Tris-HCl pH 8, 10 mM MgCl2, 1% SDS, and 1 mg/mL proteinase K. The reaction mixtures were further incubated for 15 min at 37° C. After adding 5-fold loading dye (0.05% bromophenol blue, 8% glycerol, 1 mM EDTA), the reaction products were separated by electrophoresis on 1% agarose gel. The electrophoresis was carried out in 0.5×TAE buffer (20 mM Tris, 10 mM acetic acid and 1 mM EDTA) at 100 V for 2 h. The labeled products (100-ssDNA** and D-loop) were visualized and quantified by the detection of the IRD-700 dye with the 700 nm infrared fluorescent detection channel of an Odyssey Infrared Imager (LI-COR) (Normand, A. et al., Biochemical Pharmacology, October 2014, Vol. 91, No. 3, pp. 293-300).
The “D-loop” in vitro test allows the quantification of the formation of the strand exchange structure (D-loop) and thus the determination of the inhibitory power of a molecule during the strand exchange step of the recombinase mechanism. IC50 measuring the RAD51 protein inhibition in presence of compounds A-1 to A-5, […] and DIDS are then calculated.

The next assay has as its system DU-145 cell line. Briefly: Clonogenicity test, sensitizing effect with an antineoplastic drug. It counts as cell-based. The conditions noted are these: Homo sapiens, DU-145, B-2 20 μM. On the procedure:
Clonogenicity tests are carried out against several model cell lines derived from cancer including prostate cancer (DU-145). Cells are exposed to an anti-cancer agent targeting DNA (cisplatin or camptothecin). Damaged cells are counted and seeded in the presence or in the absence of B-2 in triplicate culture plates. After about two weeks of incubation at 37° C. the number of clones formed is counted. Each cell capable of repairing its lesions will then form a clone. After counting, the percentage of survival will be calculated relative to the control condition for which it is considered that there is 100% survival.
The main interest of RAD51 protein inhibitors is the sensitization of chemo-resistant or radio-resistant cancerous cell lines. Clonogenicity evaluation was carried out on the DU-145 cell line treated with cisplatin treatment in the presence or in the absence of disulfonate stilbene B-2 (RAD51 protein inhibitor).
DU-145 cell line was treated with camptothecin in the presence or in the absence of disulfonate stilbene B-2 (RAD51 protein inhibitor) and the clonogenic cell survival was determined.

Like-named read-outs stand apart in the source and are kept apart here.

With `N#Cc1ccc(/C=C/c2ccc(C#N)cc2S(=O)(=O)[O-])c(S(=O)(=O)[O-])c1.[Na+].[Na+]` [B-2, Sodium (E)-6,6′-(ethene-1,2-diyl)bis(3-cyanobenzenesulfonate)], the “intracellular HR inhibition” value in assay [1] is recorded as “significant inhibitory effect”. The IC50 (as a rule, the concentration that gives 50% inhibition) on Rad51 came out at 5 µM. Also, the figures for the percent decrease of IC50 at 20 µM in the assay with DU-145 cell line (read-out: decrease of growth inhibition IC50 for camptothecin in presence of B-2) and with DU-145 cell line (read-out: decrease of growth inhibition IC50 for cisplatin in presence of B-2) were approximately 90% and approximately 40%, respectively.
